System: MV-4-11 cells
Assay: Gene expression microarray analysis (Affymetrix PrimeView) and GSEA
Format: cell-based, human
Design: RFU PODN (11730768_x_at) / Fold change /veh PODN (11730768_x_at) / RFU LINC00158 (11744669_a_at) / Fold change /veh LINC00158 (11744669_a_at) / RFU DUSP10 (11751237_a_at) / Fold change /veh DUSP10 (11751237_a_at) / RFU ID3 (11757404_x_at) / Fold change /veh ID3 (11757404_x_at) / RFU PLEKHG5 (11737974_s_at) / Fold change /veh PLEKHG5 (11737974_s_at) / RFU LRRC4B (11730491_at) / Fold change /veh LRRC4B (11730491_at) / RFU GIMAP4 (11747438_a_at) / Fold change /veh GIMAP4 (11747438_a_at) / RFU KRT8 (11758183_x_at) / Fold change /veh KRT8 (11758183_x_at) / RFU CNN1 (11734310_a_at) / Fold change /veh CNN1 (11734310_a_at) / RFU VPS37D (11726825_at) / Fold change /veh VPS37D (11726825_at) / RFU C10orf10 (11716522_x_at) / Fold change /veh C10orf10 (11716522_x_at) / RFU KIR2DL2 /// KIR2DL4 /// KIR2DL5A /// KIR2DL5B /// KIR2DS1 /// KIR2DS2 /// KIR2DS3 /// KIR2DS4 /// KIR3DL3 /// KIR3DL3 /// KIR3DS1 (11738374_at) / Fold change /veh KIR2DL2 /// KIR2DL4 /// KIR2DL5A /// KIR2DL5B /// KIR2DS1 /// KIR2DS2 /// KIR2DS3 /// KIR2DS4 /// KIR3DL3 /// KIR3DL3 /// KIR3DS1 (11738374_at) / RFU C1QL1 (11718748_at) / Fold change /veh C1QL1 (11718748_at) / RFU TMPRSS4 (11747572_a_at) / Fold change /veh TMPRSS4 (11747572_a_at) / RFU HAMP (11756126_x_at) / Fold change /veh HAMP (11756126_x_at) / RFU RNFT2 (11725882_a_at) / Fold change /veh RNFT2 (11725882_a_at) / RFU NR4A2 (11747474_a_at) / Fold change /veh NR4A2 (11747474_a_at) / RFU ABCC12 (11746883_a_at) / Fold change /veh ABCC12 (11746883_a_at) / RFU TMEM136 (11760407_x_at) / Fold change /veh TMEM136 (11760407_x_at) / RFU CLDN22 /// WWC2 (11732394_at) / Fold change /veh CLDN22 /// WWC2 (11732394_at) / RFU HLA-DPB1 (11760878_x_at) / Fold change /veh HLA-DPB1 (11760878_x_at) / RFU SPINT1 (11716480_a_at) / Fold change /veh SPINT1 (11716480_a_at) / RFU GAP43 (11754022_s_at) / Fold change /veh GAP43 (11754022_s_at) / RFU A4GNT (11735810_at) / Fold change /veh A4GNT (11735810_at) / RFU PRB3 (11715151_x_at) / Fold change /veh PRB3 (11715151_x_at) / RFU TUBB4B (11761932_at) / Fold change /veh TUBB4B (11761932_at) / RFU CAPN14 (11732068_a_at) / Fold change /veh CAPN14 (11732068_a_at) / RFU TMCC2 (11721928_a_at) / Fold change /veh TMCC2 (11721928_a_at) / RFU IRGQ (11745062_a_at) / Fold change /veh IRGQ (11745062_a_at) / RFU FAM174B (11720279_a_at) / Fold change /veh FAM174B (11720279_a_at) / RFU TMPRSS4 (11748680_a_at) / Fold change /veh TMPRSS4 (11748680_a_at) / RFU FAM212B (11763350_a_at) / Fold change /veh FAM212B (11763350_a_at) / RFU PLEKHG5 (11743358_a_at) / Fold change /veh PLEKHG5 (11743358_a_at) / RFU ZSCAN30 (11745921_a_at) / Fold change /veh ZSCAN30 (11745921_a_at) / RFU CMKLR1 (11741424_a_at) / Fold change /veh CMKLR1 (11741424_a_at) / RFU LOC101060620 /// MAPK8IP1 (11723275_at) / Fold change /veh LOC101060620 /// MAPK8IP1 (11723275_at) / RFU SPTSSB (11747773_x_at) / Fold change /veh SPTSSB (11747773_x_at) / RFU PRSS12 (11739890_at) / Fold change /veh PRSS12 (11739890_at) / RFU BIN1 (11741810_x_at) / Fold change /veh BIN1 (11741810_x_at) / RFU WNT11 (11732464_a_at) / Fold change /veh WNT11 (11732464_a_at) / RFU C10orf10 (11716521_a_at) / Fold change /veh C10orf10 (11716521_a_at) / RFU C5orf56 (11738089_at) / Fold change /veh C5orf56 (11738089_at) / RFU CYB561 (11721691_x_at) / Fold change /veh CYB561 (11721691_x_at) / RFU ANKRD19P (11752326_a_at) / Fold change /veh ANKRD19P (11752326_a_at) / RFU OR2T12 /// OR2T33 /// OR2T8 (11738714_s_at) / Fold change /veh OR2T12 /// OR2T33 /// OR2T8 (11738714_s_at) / RFU VCAN (11748164_a_at) / Fold change /veh VCAN (11748164_a_at) / RFU JSRP1 (11732532_at) / Fold change /veh JSRP1 (11732532_at) / RFU KRTAP10-11 (11738290_x_at) / Fold change /veh KRTAP10-11 (11738290_x_at) / RFU MYO3A (11730013_a_at) / Fold change /veh MYO3A (11730013_a_at) / RFU EBF3 (11725865_a_at) / Fold change /veh EBF3 (11725865_a_at) / RFU CAMK2N1 (11719241_x_at) / Fold change /veh CAMK2N1 (11719241_x_at) / RFU C5orf56 (11738088_a_at) / Fold change /veh C5orf56 (11738088_a_at) / RFU OLFML3 (11715873_a_at) / Fold change /veh OLFML3 (11715873_a_at) / RFU LOC100653217 /// NTM (11731650_a_at) / Fold change /veh LOC100653217 /// NTM (11731650_a_at) / RFU MAPK11 (11762145_a_at) / Fold change /veh MAPK11 (11762145_a_at) / RFU FIZ1 (11724087_x_at) / Fold change /veh FIZ1 (11724087_x_at) / RFU OASL (11726364_x_at) / Fold change /veh OASL (11726364_x_at) / RFU SOX15 (11748057_x_at) / Fold change /veh SOX15 (11748057_x_at) / RFU CD79A (11719716_a_at) / Fold change /veh CD79A (11719716_a_at) / RFU HIST1H1D (11736915_at) / Fold change /veh HIST1H1D (11736915_at) / RFU CASKIN2 (11723855_a_at) / Fold change /veh CASKIN2 (11723855_a_at) / RFU LOC730098 (11760151_x_at) / Fold change /veh LOC730098 (11760151_x_at) / RFU OR4N2 (11742367_at) / Fold change /veh OR4N2 (11742367_at) / RFU PRRT2 (11749266_a_at) / Fold change /veh PRRT2 (11749266_a_at) / RFU SNX32 (11753110_a_at) / Fold change /veh SNX32 (11753110_a_at) / RFU CDHR5 (11726645_a_at) / Fold change /veh CDHR5 (11726645_a_at) / RFU RCAN1 (11760418_a_at) / Fold change /veh RCAN1 (11760418_a_at) / RFU FAM167A (11723789_a_at) / Fold change /veh FAM167A (11723789_a_at) / RFU FAM26E (11764081_at) / Fold change /veh FAM26E (11764081_at) / RFU ISYNA1 (11749810_s_at) / Fold change /veh ISYNA1 (11749810_s_at) / RFU ACY1 (11761880_at) / Fold change /veh ACY1 (11761880_at) / RFU 11764098_at / Fold change /veh 11764098_at / RFU SAMD14 (11745864_x_at) / Fold change /veh SAMD14 (11745864_x_at) / RFU NPB (11741838_a_at) / Fold change /veh NPB (11741838_a_at) / RFU TMPRSS6 (11731388_a_at) / Fold change /veh TMPRSS6 (11731388_a_at) / RFU KRTAP10-2 (11738614_at) / Fold change /veh KRTAP10-2 (11738614_at) / RFU ARHGAP8 /// PRR5-ARHGAP8 (11727945_x_at) / Fold change /veh ARHGAP8 /// PRR5-ARHGAP8 (11727945_x_at) / RFU KRTAP5-7 /// NADSYN1 (11734609_at) / Fold change /veh KRTAP5-7 /// NADSYN1 (11734609_at) / RFU RASL12 (11751679_a_at) / Fold change /veh RASL12 (11751679_a_at) / RFU CDKN2B (11736163_a_at) / Fold change /veh CDKN2B (11736163_a_at) / RFU PRF1 (11729649_at) / Fold change /veh PRF1 (11729649_at) / RFU, ZNF638 /// ZNF638-IT1 / Fold change vs veh, ZNF638 /// ZNF638-IT1 / RFU, PANK3 / Fold change vs veh, PANK3 / RFU, SH3YL1 / Fold change vs veh, SH3YL1 / RFU, ZEB2 / Fold change vs veh, ZEB2 / RFU, NRIP1 / Fold change vs veh, NRIP1 / RFU, PTTG1IP / Fold change vs veh, PTTG1IP / RFU, CAPN2 / Fold change vs veh, CAPN2 / RFU, MED14 / Fold change vs veh, MED14 / RFU, SNORA58 / Fold change vs veh, SNORA58 / RFU, C1orf63 / Fold change vs veh, C1orf63 / RFU, LRRFIP1 / Fold change vs veh, LRRFIP1 / RFU, NDUFAF7 / Fold change vs veh, NDUFAF7 / RFU, SLC12A2 / Fold change vs veh, SLC12A2 / RFU, IBTK / Fold change vs veh, IBTK / RFU, ESF1 / Fold change vs veh, ESF1 / Fold change vs veh, TMEM50B / RFU, TAOK1 / Fold change vs veh, TAOK1 / RFU, ACBD3 / Fold change vs veh, ACBD3 / RFU, TMA16 / Fold change vs veh, TMA16 / RFU, RWDD3 / Fold change vs veh, RWDD3 / RFU, BCAT1 / Fold change vs veh, BCAT1 / RFU, EDEM3 / Fold change vs veh, EDEM3 / RFU, TMEM33 / Fold change vs veh, TMEM33 / RFU, WDR75 / Fold change vs veh, WDR75 / RFU, AHCTF1 / Fold change vs veh, AHCTF1 / RFU, TFRC / Fold change vs veh, TFRC / RFU, ZDHHC17 / Fold change vs veh, ZDHHC17 / RFU, NOM1 / Fold change vs veh, NOM1 / RFU, ARL8B / Fold change vs veh, ARL8B / RFU, ZBTB11 / Fold change vs veh, ZBTB11 / RFU, TAMM41 / Fold change vs veh, TAMM41 / RFU, KIAA1704 /// LOC100996395 / Fold change vs veh, KIAA1704 /// LOC100996395 / RFU, ING1 / Fold change vs veh, ING1 / RFU, TRMT61B / Fold change vs veh, TRMT61B / RFU, FUBP3 / Fold change vs veh, FUBP3 / RFU, TP53 / Fold change vs veh, TP53 / RFU, TNKS2 / Fold change vs veh, TNKS2 / RFU, ZFP14 / Fold change vs veh, ZFP14 / RFU, ACTR2 / Fold change vs veh, ACTR2 / RFU, PPP3R1 / Fold change vs veh, PPP3R1 / RFU, PIK3R1 / Fold change vs veh, PIK3R1 / RFU, HNRNPA1 / Fold change vs veh, HNRNPA1 / RFU, RNF170 / Fold change vs veh, RNF170 / RFU, ZNF28 / Fold change vs veh, ZNF28 / RFU, RNGTT / Fold change vs veh, RNGTT / RFU, OGT / Fold change vs veh, OGT / RFU, BRD1 / Fold change vs veh, BRD1 / RFU, MARS / Fold change vs veh, MARS / RFU, ZNF655 / Fold change vs veh, ZNF655 / RFU, FAHD1 / Fold change vs veh, FAHD1 / RFU, BDP1 / Fold change vs veh, BDP1 / RFU, LRRCC1 / Fold change vs veh, LRRCC1 / RFU, ARID1A / Fold change vs veh, ARID1A / RFU, ZNF146 / Fold change vs veh, ZNF146 / RFU, ZNF330 / Fold change vs veh, ZNF330 / RFU, GPN3 / Fold change vs veh, GPN3 / RFU, C9orf123 / Fold change vs veh, C9orf123 / RFU, N4BP2L2 / Fold change vs veh, N4BP2L2 / RFU, ARFIP1 / Fold change vs veh, ARFIP1 / RFU, FAM179B / Fold change vs veh, FAM179B / RFU, BCL10 / Fold change vs veh, BCL10 / RFU, UHRF1BP1L / Fold change vs veh, UHRF1BP1L / RFU, BET1 / Fold change vs veh, BET1 / RFU, CNOT2 / Fold change vs veh, CNOT2 / RFU, ZNF268 / Fold change vs veh, ZNF268 / Fold change vs veh, ZNF507 / RFU, DGCR2 / Fold change vs veh, DGCR2 / RFU, WDSUB1 / Fold change vs veh, WDSUB1 / Fold change vs veh, HSP90B1 /// MIR3652 / RFU, ADSS / Fold change vs veh, ADSS / RFU, GK / Fold change vs veh, GK / RFU, ZNF148 / Fold change vs veh, ZNF148 / RFU, TAF9 / Fold change vs veh, TAF9 / RFU, SLC1A5 / Fold change vs veh, SLC1A5 / RFU, SLMO2 / Fold change vs veh, SLMO2 / RFU, ABCC4 / Fold change vs veh, ABCC4 / RFU, LOC101060439 /// RAP1B / Fold change vs veh, LOC101060439 /// RAP1B / RFU, RFX7 / Fold change vs veh, RFX7 / RFU, GTPBP10 / Fold change vs veh, GTPBP10 / RFU, CNEP1R1 / Fold change vs veh, CNEP1R1 / RFU, BIVM-ERCC5 /// ERCC5 / Fold change vs veh, BIVM-ERCC5 /// ERCC5 / RFU, ILF3 / Fold change vs veh, ILF3 / RFU 11762660_at / Fold change /veh 11762660_at / RFU VCAN (11757783_s_at) / Fold change /veh VCAN (11757783_s_at) / RFU DDX43 (11728927_at) / Fold change /veh DDX43 (11728927_at) / RFU KRT8 (11758188_x_at) / Fold change /veh KRT8 (11758188_x_at) / RFU NKD1 (11759106_at) / Fold change /veh NKD1 (11759106_at) / RFU SRD5A1 (11742802_a_at) / Fold change /veh SRD5A1 (11742802_a_at) / RFU TPSAB1 /// TPSB2 (11721975_s_at) / Fold change /veh TPSAB1 /// TPSB2 (11721975_s_at) / RFU GSTM3 (11746129_a_at) / Fold change /veh GSTM3 (11746129_a_at) / RFU IL23R (11737362_x_at) / Fold change /veh IL23R (11737362_x_at) / RFU TMEM51 (11727254_a_at) / Fold change /veh TMEM51 (11727254_a_at) / RFU PIWIL2 (11732686_x_at) / Fold change /veh PIWIL2 (11732686_x_at) / RFU ORM1 (11744905_x_at) / Fold change /veh ORM1 (11744905_x_at) / RFU CCDC152 (11743942_at) / Fold change /veh CCDC152 (11743942_at) / RFU ECM1 (11717891_a_at) / Fold change /veh ECM1 (11717891_a_at) / RFU IL23R (11748794_a_at) / Fold change /veh IL23R (11748794_a_at) / RFU TNFAIP8L3 (11732012_x_at) / Fold change /veh TNFAIP8L3 (11732012_x_at) / RFU MBOAT4 (11741988_at) / Fold change /veh MBOAT4 (11741988_at) / RFU 11764193_at / Fold change /veh 11764193_at / RFU TMEM53 (11763286_at) / Fold change /veh TMEM53 (11763286_at) / RFU MAGEB2 (11727129_at) / Fold change /veh MAGEB2 (11727129_at) / RFU TMEM200A (11744735_a_at) / Fold change /veh TMEM200A (11744735_a_at) / RFU CCDC152 (11751479_a_at) / Fold change /veh CCDC152 (11751479_a_at) / RFU FAM211A (11726209_a_at) / Fold change /veh FAM211A (11726209_a_at) / RFU RGS16 (11746705_a_at) / Fold change /veh RGS16 (11746705_a_at) / RFU VCAN (11755009_s_at) / Fold change /veh VCAN (11755009_s_at) / RFU RHOB (11743442_s_at) / Fold change /veh RHOB (11743442_s_at) / RFU RGS16 (11720943_a_at) / Fold change /veh RGS16 (11720943_a_at) / RFU RGS16 (11720944_at) / Fold change /veh RGS16 (11720944_at) / RFU, VPS4B / Fold change vs veh, VPS4B / RFU, CREB1 / Fold change vs veh, CREB1 / RFU, DNAJC13 / Fold change vs veh, DNAJC13 / RFU, GNAQ / Fold change vs veh, GNAQ / RFU, CDK5R1 / Fold change vs veh, CDK5R1 / RFU, ZRANB3 / Fold change vs veh, ZRANB3 / RFU, CUL4A / Fold change vs veh, CUL4A / RFU, CCNY / Fold change vs veh, CCNY / RFU, UFL1 / Fold change vs veh, UFL1 / RFU, COG3 / Fold change vs veh, COG3 / RFU, DIAPH2 / Fold change vs veh, DIAPH2 / RFU, SKA2 / Fold change vs veh, SKA2 / RFU, AFF3 / Fold change vs veh, AFF3 / RFU, LMF1 / Fold change vs veh, LMF1 / RFU, IPO11 / Fold change vs veh, IPO11 / RFU, DFFB / Fold change vs veh, DFFB / RFU, FOXP1 / Fold change vs veh, FOXP1 / RFU, CARD8 / Fold change vs veh, CARD8 / RFU, STRN3 / Fold change vs veh, STRN3 / RFU, ADK / Fold change vs veh, ADK / RFU, RASSF2 / Fold change vs veh, RASSF2 / RFU, WIPF1 / Fold change vs veh, WIPF1 / RFU, LARP1B / Fold change vs veh, LARP1B / RFU, RASA1 / Fold change vs veh, RASA1 / RFU, RB1 / Fold change vs veh, RB1 / RFU, PPFIA1 / Fold change vs veh, PPFIA1 / RFU, MAT2A / Fold change vs veh, MAT2A / RFU, CCT5 / Fold change vs veh, CCT5 / RFU, WDR92 / Fold change vs veh, WDR92 / RFU, CUX1 / Fold change vs veh, CUX1 / RFU, TTC7A / Fold change vs veh, TTC7A / RFU, TMEM135 / Fold change vs veh, TMEM135 / RFU, DEPTOR / Fold change vs veh, DEPTOR / RFU, CPM / Fold change vs veh, CPM / RFU, DNAJB6 / Fold change vs veh, DNAJB6 / RFU, CACNA2D3 / Fold change vs veh, CACNA2D3 / RFU, DTX4 / Fold change vs veh, DTX4 / RFU, TFCP2 / Fold change vs veh, TFCP2 / RFU, GMCL1 /// GMCL1P1 / Fold change vs veh, GMCL1 /// GMCL1P1 / RFU, AEBP2 / Fold change vs veh, AEBP2 / RFU, SNHG1 /// SNORD22 /// SNORD25 /// SNORD26 /// SNORD27 /// SNORD28 /// SNORD29 /// SNORD31 / Fold change vs veh, SNHG1 /// SNORD22 /// SNORD25 /// SNORD26 /// SNORD27 /// SNORD28 /// SNORD29 /// SNORD31 / Fold change (Aza/veh), C12orf56 (ProbeSet 11735607_a_at) / Fold change (ACY-1035/veh), C12orf56 (ProbeSet 11735607_a_at) / Fold change (Aza/veh), FGFR1OP (ProbeSet 11751329_s_at) / Fold change (ACY-1035/veh), FGFR1OP (ProbeSet 11751329_s_at) / Fold change (Aza/veh), VPS36 (ProbeSet 11739960_a_at) / Fold change (ACY-1035/veh), VPS36 (ProbeSet 11739960_a_at) / RFU SYPL1 (11715823_x_at) / Fold change /veh SYPL1 (11715823_x_at) / RFU IGFBP7 (11715501_s_at) / Fold change /veh IGFBP7 (11715501_s_at) / RFU REEP3 (11722064_at) / Fold change /veh REEP3 (11722064_at) / RFU IGLL1 (11728026_x_at) / Fold change /veh IGLL1 (11728026_x_at): dose or concentration left out as unconfirmed
Settings: MV-4-11 cells, 48 hours

## Nc1ncn([C@@H]2O[C@H](CO)[C@@H](O)[C@H]2O)c(=O)n1 [azacitidine]
  RFU FAM174B (11720279_a_at): 25.09 RFU
